Experimental data from patent US20170101684A1, “METHOD FOR DIAGNOSING AND TREATING MULTIPLE MYELOMA” (Erasmus University Medical Center Rotterdam, priority 2014, published 2017).

Assays:
[1] = tested on: MM patients with amp1q chromosomal aberration; assay: Overall survival (Kaplan Meier) of MM patients with amp1q by classical FISH, PAD versus VAD; type: in vivo, human; conditions: MM patients with an amp1q chromosomal aberration
Text: FIG. 1: Kaplan Meier curve showing 60 MM patients (see Table 2) identified as having an additional copy of chromosome 1q (amp1q) using classical FISH analysis. […] Upper line: amp1q cases treated with PAD; lower line: amp1q cases treated with VAD. Hazard Ratio=3.59, p=0.0037.
FIG. 1 provides a Kaplan-Meier curve wherein the top line represents amp1q cases treated with Bortezomib (a proteasome inhibitor), Adriamycin and Dexamethasone (PAD), and the bottom line represents amp1q cases treated with a conventional therapy (Vincristine Adriamycin Dexamethasone or VAD). A Hazard Ratio of 3.59 (p=0.0037) was found. It was concluded that MM patients with amp1q may be preferentially treated with a proteasome inhibitor such as Bortezomib since that provides these patients with a better life expectancy.
FISH analysis was performed in 304 patients. In nonpurified plasma cell samples (n=125), at least 200 interphase nuclei per sample were analyzed by the use of epi-fluorescence microscopy and image analysis software. Within several cases, a preceding analysis of selected myeloma cells was determined by immunoglobulin light chain counterstaining or morphology. In CD138-purified PC samples (n=179), 100 nuclei were evaluated by the use of an epifluorescence microscope (Leica Microsystems). […]

[2] = tested on: MM subjects without the amp1q chromosomal aberration; assay: Response of MM patients without amp1q to proteasome inhibitor; type: in vivo, human
Text: Methods for determining whether a subject with MM has an amp1q chromosomal aberration are known in the art, and any such methods may be used in aspects of this disclosure, although preferred embodiments will be disclosed herein below.

For `CC(C)C[C@H](NC(=O)[C@H](Cc1ccccc1)NC(=O)c1cnccn1)B(O)O` [Bortezomib], the Response to treatment [1] was “respond well” and the Response to treatment [2] was “do not experience this advantageous response”.
